The term MIC90 denotes an inhibitory concentration at the 90% level, which refers to growth in some studies and to a panel of isolates in others.

Each structure is given as a SMILES string. Converted amounts (≈) assume the structure as drawn. Where two headings read alike, the source gives them in different places.

What all share (experiment): In vitro antibacterial activity, broth microdilution MIC90
Format in all cases: cell-based

In assay [1] the test system is Methicillin Resistant Staphylococcus epidermidis. The method, then: (§1) MIC90 was measured by broth microdilution method based on CLSI standards [reference: Clinical and Laboratory Standards Institute Document. (2000) Methods for Dilution Antimicrobial Susceptibility Test for Bacteria that Grow Aerobically-Fifth Edition: M7-A5. CLSI, Villanova, Pa.].
(§2) Activities of 12 strains including Staphylococcus aureus, Methicillin Resistant Staphylococcus aureus, Staphylococcus epidermidis, Methicillin Resistant Staphylococcus epidermidis, Enterococcus faecalis, Vancomycin Resistant Enterococcus faecalis, Linezolid and Vancomycin Resistant Enterococcus faecalis, Enterococcus faecium, Vancomycin Resistant Enterococcus faecium, Linezolid and Vancomycin Resistant Enterococcus faecium, and Moraxella catarrhalis, were measured, and results are shown in Table 1 below.
(§3) The final concentration of test material in the antibacterial test was from 0.063 μg/mL (minimum) to 128 μg/mL (maximum), and the final concentration of DMSO used as an excipient was 2.5% (V/V). Linezolid represented by Formula B below (manufactured by Pfizer) was used as a control and bacterial activity thereof was compared with those of the test materials.

For the next assay, the system named is Enterococcus faecalis. As to the method:
as §1, §2, §3

In assay [2] the test system is Vancomycin Resistant Enterococcus faecalis. As to the method:
as §1, §2, §3

A further assay concerns Staphylococcus aureus. As to the method:
as §1, §2, §3

Assay [3] relates to Staphylococcus epidermidis. As to the method: as §1, §2, §3
Assay [4] relates to Linezolid and Vancomycin Resistant Enterococcus faecium (strain 11). The method, then: as §1, §2, §3
A further assay has as its system Enterococcus faecium. As to the method: as §1, §2, §3
In assay [5] the test system is Linezolid and Vancomycin Resistant Enterococcus faecalis. The method, then: as §1, §2, §3
For assay [6], the system named is Linezolid and Vancomycin Resistant Enterococcus faecium (strain 10). The method, then: as §1, §2, §3
In a further assay the test system is Moraxella catarrhalis. The method, then:
as §1, §2, §3

The subject of assay [7] is Methicillin Resistant Staphylococcus aureus. The method, then: as §1, §2, §3
For assay [8], the system named is Vancomycin Resistant Enterococcus faecium. As to the method: as §1, §2, §3

Take `COC(=O)NC[C@H]1CN(c2ccc(-c3ccc(N4C=NN(C(N)=O)CC4)nc3)c(F)c2)C(=O)O1` [Compound 26]: the MIC90 is 1 µg/mL (≈ 2.12 µM) in assay [1] (Staphylococcus epidermidis); 0.5 µg/mL (≈ 1.06 µM) against Enterococcus faecalis (Enterococcus faecalis); 0.5 µg/mL (≈ 1.06 µM) in assay [2] (Enterococcus faecalis); 0.25 µg/mL (≈ 0.53 µM) in the assay with Staphylococcus aureus (Staphylococcus aureus); 0.5 µg/mL (≈ 1.06 µM) in assay [3] (Staphylococcus epidermidis); 2 µg/mL (≈ 4.24 µM) in [4] (Enterococcus faecium). Besides, the MIC90 against Enterococcus faecium (Enterococcus faecium) is 0.25 µg/mL (≈ 0.53 µM); in assay [5] (Enterococcus faecalis) it was 4 µg/mL (≈ 8.48 µM); in [6] (Enterococcus faecium) it was 4 µg/mL (≈ 8.48 µM); with Moraxella catarrhalis (Moraxella catarrhalis), 4 µg/mL (≈ 8.48 µM); in [7] (Staphylococcus aureus), 1 µg/mL (≈ 2.12 µM); in [8] (Enterococcus faecium), 0.5 µg/mL (≈ 1.06 µM).

Consider `CC(=O)NC[C@H]1CN(c2ccc(-c3ccc(N4C=NNCC4)nc3)c(F)c2)C(=O)O1` [Compound 2], for which the MIC90 is 1 µg/mL (≈ 2.42 µM) in assay [1] (Staphylococcus epidermidis); 0.5 µg/mL (≈ 1.21 µM) in the assay on Enterococcus faecalis (Enterococcus faecalis); 0.5 µg/mL (≈ 1.21 µM) in assay [2] (Enterococcus faecalis); 0.5 µg/mL (≈ 1.21 µM) against Staphylococcus aureus (Staphylococcus aureus); 0.5 µg/mL (≈ 1.21 µM) in assay [3] (Staphylococcus epidermidis); 2 µg/mL (≈ 4.85 µM) in assay [4] (Enterococcus faecium). The MIC90 in the assay with Enterococcus faecium (Enterococcus faecium) was found to be 0.5 µg/mL (≈ 1.21 µM); in assay [5] (Enterococcus faecalis) it was 2 µg/mL (≈ 4.85 µM); in assay [6] (Enterococcus faecium) it was 2 µg/mL (≈ 4.85 µM); against Moraxella catarrhalis (Moraxella catarrhalis), 4 µg/mL (≈ 9.7 µM); in assay [7] (Staphylococcus aureus), 1 µg/mL (≈ 2.42 µM); in [8] (Enterococcus faecium), 0.5 µg/mL (≈ 1.21 µM).

With `Cl.O=C1O[C@@H](CNc2ccon2)CN1c1ccc(-c2ccc(N3C=NNCC3)nc2)c(F)c1` [Compound 39], the MIC90 in [1] (strain 4, S. epidermidis MR) was determined as 2 µg/mL; in the assay with Enterococcus faecalis (strain 5, E. faecalis) it was 0.5 µg/mL; in assay [2] (strain 6, E. faecalis VanA) it was 1 µg/mL; against Staphylococcus aureus (strain 1, S. aureus), 0.25 µg/mL; in assay [3] (strain 3, S. epidermidis), 1 µg/mL; in assay [4] (strain 11, E. faecium VanA LR), 4 µg/mL. The MIC90 with Enterococcus faecium (strain 8, E. faecium) was 0.25 µg/mL; in assay [5] (strain 7, E. faecalis VanA LR), 4 µg/mL; in assay [6] (strain 10, E. faecium VanA LR) it was 4 µg/mL; in the assay on Moraxella catarrhalis (strain 12, M. catarrhalis), 2 µg/mL; in [7] (strain 2, S. aureus MR) it was 0.5 µg/mL; in [8] (strain 9, E. faecium VanA), 1 µg/mL.

With `O=C1O[C@@H](CO)CN1c1ccc(-c2ccc(N3C=NOCC3)nc2)c(F)c1` [Compound 58], the MIC90 was 1 µg/mL (≈ 2.69 µM) in [1] (Staphylococcus epidermidis, strain 4, S. epidermidis MR, read-out: MIC90); 1 µg/mL (≈ 2.69 µM) in the assay with Enterococcus faecalis (Enterococcus faecalis, strain 5, E. faecalis, read-out: MIC90); 0.5 µg/mL (≈ 1.34 µM) in [2] (Enterococcus faecalis, strain 6, E. faecalis VanA, read-out: MIC90); 0.5 µg/mL (≈ 1.34 µM) in the assay with Staphylococcus aureus (Staphylococcus aureus, strain 1, S. aureus, read-out: MIC90); 0.5 µg/mL (≈ 1.34 µM) in assay [3] (Staphylococcus epidermidis, strain 3, S. epidermidis, read-out: MIC90); 8 µg/mL (≈ 21.5 µM) in [4] (Enterococcus faecium, strain 11, E. faecium VanA LR, read-out: MIC90). Further, the MIC90 came out at 0.5 µg/mL (≈ 1.34 µM) with Enterococcus faecium (Enterococcus faecium, strain 8, E. faecium, read-out: MIC90); 8 µg/mL (≈ 21.5 µM) in [5] (Enterococcus faecalis, strain 7, E. faecalis VanA LR, read-out: MIC90); 4 µg/mL (≈ 10.7 µM) in assay [6] (Enterococcus faecium, strain 10, E. faecium VanA LR, read-out: MIC90); 8 µg/mL (≈ 21.5 µM) in the assay on Moraxella catarrhalis (Moraxella catarrhalis, strain 12, M. catarrhalis, read-out: MIC90); 1 µg/mL (≈ 2.69 µM) in assay [7] (Staphylococcus aureus, strain 2, S. aureus MR, read-out: MIC90); 1 µg/mL (≈ 2.69 µM) in assay [8] (Enterococcus faecium, strain 9, E. faecium VanA, read-out: MIC90).

For the compound `CC(=O)NC[C@H]1CN(c2ccc(-c3ccc(N4C=NN(C(=O)CO)CC4)nc3)c(F)c2)C(=O)O1` [Compound 11], the MIC90 in assay [1] (Staphylococcus epidermidis) is 0.25 µg/mL (≈ 0.531 µM); in the assay with Enterococcus faecalis (Enterococcus faecalis), 0.125 µg/mL (≈ 0.266 µM); in assay [2] (Enterococcus faecalis), 0.125 µg/mL (≈ 0.266 µM); with Staphylococcus aureus (Staphylococcus aureus), 0.063 µg/mL (≈ 0.134 µM); in assay [3] (Staphylococcus epidermidis) it was 0.063 µg/mL (≈ 0.134 µM); in assay [4] (Enterococcus faecium), 1 µg/mL (≈ 2.13 µM). Also, the MIC90 came out at 0.063 µg/mL (≈ 0.134 µM) in the assay on Enterococcus faecium (Enterococcus faecium); 0.5 µg/mL (≈ 1.06 µM) in assay [5] (Enterococcus faecalis); 0.5 µg/mL (≈ 1.06 µM) in assay [6] (Enterococcus faecium); 1 µg/mL (≈ 2.13 µM) in the assay with Moraxella catarrhalis (Moraxella catarrhalis); 0.25 µg/mL (≈ 0.531 µM) in assay [7] (Staphylococcus aureus); 0.125 µg/mL (≈ 0.266 µM) in assay [8] (Enterococcus faecium). Moreover, the “antibacterial activity against linezolid-resistant bacteria (in words)” value in assay [5] (Enterococcus faecalis and Enterococcus faecium which are resistant to linezolid) is given as “very high antibacterial activity”.

For the compound `CC(=O)NC[C@H]1CN(c2ccc(-c3ccc(N4C=NN(C(=O)C5COC(C)(C)O5)CC4)nc3)c(F)c2)C(=O)O1` (stereo partly shown) [Compound 20], the MIC90 is 4 µg/mL (≈ 7.4 µM) in [1] (Staphylococcus epidermidis); 2 µg/mL (≈ 3.7 µM) against Enterococcus faecalis (Enterococcus faecalis); 2 µg/mL (≈ 3.7 µM) in [2] (Enterococcus faecalis); 2 µg/mL (≈ 3.7 µM) in the assay on Staphylococcus aureus (Staphylococcus aureus); 4 µg/mL (≈ 7.4 µM) in [3] (Staphylococcus epidermidis); 8 µg/mL (≈ 14.8 µM) in assay [4] (Enterococcus faecium). Also, the MIC90 against Enterococcus faecium (Enterococcus faecium) is 2 µg/mL (≈ 3.7 µM); in assay [5] (Enterococcus faecalis), 8 µg/mL (≈ 14.8 µM); in assay [6] (Enterococcus faecium) it was 8 µg/mL (≈ 14.8 µM); against Moraxella catarrhalis (Moraxella catarrhalis) it was 8 µg/mL (≈ 14.8 µM); in assay [7] (Staphylococcus aureus), 8 µg/mL (≈ 14.8 µM); in assay [8] (Enterococcus faecium) it was 2 µg/mL (≈ 3.7 µM).

The values are drawn from patent US8846669B2, “Oxazolidinone derivative and medical composition containing same” (Legochem Biosciences, Inc., priority 2011, dated 2014).
